Key:
Experiment in all cases: Test D pre-/postemergence plant response
Type in all cases: in vivo
kochia (Kochia scoparia) = test system: kochia (Kochia scoparia)
Outline: (§1)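 Ratings come from greenhouse-grown weeds in loam and sand treated pre- or postemergence (postemergence height 2 to 18 cm). Evaluation after 14–21 days, visual, relative to controls, on a 0–100 control scale.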

[1] = test system: naked crabgrass (Digitaria nuda)
Outline: as §1

[2] = test system: dallisgrass (Paspalum dilatatum)
Outline: as §1

[3] = test system: itchgrass (Rottboellia cochinchinensis)
Outline: as §1

[4] = test system: groundsel (common groundsel, Senecio vulgaris); settings: Postemergence
Outline: as §1

[5] = test system: bermudagrass (Cynodon dactylon)
Outline: as §1

[6] = test system: dayflower (Virginia (VA) dayflower, Commelina virginica)
Outline: as §1

[7] = test system: guineagrass (Panicum maximum)
Outline: as §1

[8] = test system: goosegrass (Eleusine indica)
Outline: as §1

[9] = test system: sowthistle (common sowthistle, Sonchus oleraceous)
Outline: as §1

[10] = test system: Surinam grass (Brachiaria decumbens)
Outline: as §1

[11] = test system: mallow (common mallow, Malva sylvestris)
Outline: as §1

[12] = test system: barnyardgrass (Echinochloa crus-galli)
Outline: as §1

[13] = test system: green foxtail (Setaria viridis)
Outline: as §1

[14] = test system: johnsongrass (Sorghum halepense)
Outline: as §1

[15] = Postemergence, 16 g ai/ha, scale 0 to 100
[16] = Postemergence, 31 g ai/ha, scale 0 to 100
[17] = Postemergence, 125 g ai/ha, scale 0 to 100 (0 no effect, 100 complete control)
[18] = Postemergence, 62 g ai/ha, scale 0 to 100 (0 no effect, 100 complete control)
[19] = Preemergence, 16 g ai/ha, scale 0 to 100, 0 no effect, 100 complete control
[20] = Preemergence, 31 g ai/ha, scale 0 to 100 (0 no effect, 100 complete control)
[21] = Preemergence, 62 g ai/ha, scale 0 to 100
[22] = Preemergence, 125 g ai/ha, scale 0 to 100
[23] = Postemergence, 31 g ai/ha, scale 0 to 100 (0 no effect, 100 complete control)

O=C1CCCC(O)=C1C(=O)c1cnc(-c2ccccc2)n(C2CCCCC2)c1=O [Compound 128, 3-cyclohexyl-5-[(2-hydroxy-6-oxo-1-cyclohexen-1-yl)carbonyl]-2-phenyl-4(3H)-pyrimidinone]
Plant response rating, Kochia (kochia (Kochia scoparia); [15]): 20
Plant response rating, Kochia (kochia (Kochia scoparia); [16]): 30
Plant response rating, Kochia (kochia (Kochia scoparia); [17]): 40
Plant response rating, Kochia (kochia (Kochia scoparia); [18]): 30
Plant response rating, Kochia (kochia (Kochia scoparia); [19]): 0
Plant response rating, Kochia (kochia (Kochia scoparia); [20]): 0
Plant response rating, Kochia (kochia (Kochia scoparia); [21]): 50
Plant response rating, Kochia (kochia (Kochia scoparia); [22]): 50
Plant response rating, Crabgrass, Naked [1, 15]: 35
Plant response rating, Crabgrass, Naked [1, 16]: 65
Plant response rating, Crabgrass, Naked [1, 17]: 75
Plant response rating, Crabgrass, Naked [1, 18]: 70
Plant response rating, Crabgrass, Naked [1, 19]: 0
Plant response rating, Crabgrass, Naked [1, 20]: 0
Plant response rating, Crabgrass, Naked [1, 21]: 0
Plant response rating, Crabgrass, Naked [1, 22]: 75
Plant response rating, Dallisgrass [2, 15]: 10
Plant response rating, Dallisgrass [2, 16]: 20
Plant response rating, Dallisgrass [2, 17]: 60
Plant response rating, Dallisgrass [2, 18]: 30
Plant response rating, Dallisgrass [2, 19]: 0
Plant response rating, Dallisgrass [2, 20]: 20
Plant response rating, Dallisgrass [2, 21]: 65
Plant response rating, Dallisgrass [2, 22]: 98
Plant response rating, Itchgrass [3, 15]: 0
Plant response rating, Itchgrass [3, 16]: 40
Plant response rating, Itchgrass [3, 17]: 65
Plant response rating, Itchgrass [3, 18]: 40
Plant response rating, Itchgrass [3, 19]: 0
Plant response rating, Itchgrass [3, 20]: 0
Plant response rating, Itchgrass [3, 21]: 0
Plant response rating, Itchgrass [3, 22]: 20
Plant response rating, Groundsel ([4]; 16 g ai/ha, scale 0 to 100): 100
Plant response rating, Groundsel ([4]; 31 g ai/ha, scale 0 to 100): 100
Plant response rating, Groundsel ([4]; 125 g ai/ha, scale 0 to 100 (0 no effect, 100 complete control)): 100
Plant response rating, Groundsel ([4]; 62 g ai/ha, scale 0 to 100 (0 no effect, 100 complete control)): 100
Plant response rating, Bermudagrass [5, 15]: 70
Plant response rating, Bermudagrass [5, 23]: 70
Plant response rating, Bermudagrass [5, 17]: 90
Plant response rating, Bermudagrass [5, 18]: 80
Plant response rating, Bermudagrass [5, 19]: 0
Plant response rating, Bermudagrass [5, 20]: 0
Plant response rating, Bermudagrass [5, 21]: 65
Plant response rating, Bermudagrass [5, 22]: 75
Plant response rating, Dayflower, VA [6, 15]: 50
Plant response rating, Dayflower, VA [6, 16]: 50
Plant response rating, Dayflower, VA [6, 17]: 70
Plant response rating, Dayflower, VA [6, 18]: 60
Plant response rating, Dayflower, VA [6, 20]: 0
Plant response rating, Dayflower, VA [6, 21]: 10
Plant response rating, Dayflower, VA [6, 22]: 25
Plant response rating, Guineagrass [7, 15]: 20
Plant response rating, Guineagrass [7, 16]: 30
Plant response rating, Guineagrass [7, 17]: 35
Plant response rating, Guineagrass [7, 18]: 30
Plant response rating, Guineagrass [7, 19]: 0
Plant response rating, Guineagrass [7, 20]: 0
Plant response rating, Guineagrass [7, 21]: 0
Plant response rating, Guineagrass [7, 22]: 0
Plant response rating, Goosegrass [8, 15]: 35
Plant response rating, Goosegrass [8, 16]: 40
Plant response rating, Goosegrass [8, 17]: 70
Plant response rating, Goosegrass [8, 18]: 65
Plant response rating, Goosegrass [8, 19]: 0
Plant response rating, Goosegrass [8, 20]: 5
Plant response rating, Goosegrass [8, 21]: 65
Plant response rating, Goosegrass [8, 22]: 90
Plant response rating, Sowthistle [9, 15]: 100
Plant response rating, Sowthistle [9, 16]: 100
Plant response rating, Sowthistle [9, 17]: 100
Plant response rating, Sowthistle [9, 18]: 100
Plant response rating, Sowthistle [9, 19]: 80
Plant response rating, Sowthistle [9, 20]: 80
Plant response rating, Sowthistle [9, 22]: 100
Plant response rating, Surinam Grass [10, 16]: 25
Plant response rating, Surinam Grass [10, 17]: 50
Plant response rating, Surinam Grass [10, 18]: 30
Plant response rating, Surinam Grass [10, 19]: 0
Plant response rating, Surinam Grass [10, 20]: 35
Plant response rating, Surinam Grass [10, 22]: 90
Plant response rating, Surinam Grass ([10]; Preemergence, rate not given, scale 0 to 100, 0 no effect, 100 complete control): 80
Plant response rating, Mallow [11, 15]: 5
Plant response rating, Mallow [11, 16]: 5
Plant response rating, Mallow [11, 17]: 40
Plant response rating, Mallow [11, 18]: 40
Plant response rating, Mallow [11, 20]: 70
Plant response rating, Mallow [11, 21]: 70
Plant response rating, Mallow [11, 22]: 100
Plant response rating, Barnyardgrass [12, 15]: 35
Plant response rating, Barnyardgrass [12, 23]: 70
Plant response rating, Barnyardgrass [12, 17]: 90
Plant response rating, Barnyardgrass [12, 18]: 70
Plant response rating, Barnyardgrass [12, 19]: 0
Plant response rating, Barnyardgrass [12, 20]: 0
Plant response rating, Barnyardgrass [12, 21]: 5
Plant response rating, Barnyardgrass [12, 22]: 15
Plant response rating, Foxtail, Green [13, 15]: 25
Plant response rating, Foxtail, Green [13, 16]: 40
Plant response rating, Foxtail, Green [13, 17]: 70
Plant response rating, Foxtail, Green [13, 18]: 65
Plant response rating, Foxtail, Green [13, 19]: 0
Plant response rating, Foxtail, Green [13, 20]: 0
Plant response rating, Foxtail, Green [13, 21]: 0
Plant response rating, Foxtail, Green [13, 22]: 0
Plant response rating, Johnsongrass [14, 15]: 35
Plant response rating, Johnsongrass [14, 16]: 40
Plant response rating, Johnsongrass [14, 17]: 65
Plant response rating, Johnsongrass [14, 18]: 50
Plant response rating, Johnsongrass [14, 19]: 0
Plant response rating, Johnsongrass [14, 20]: 0
Plant response rating, Johnsongrass [14, 21]: 15
Plant response rating, Johnsongrass [14, 22]: 65

Source: patent publication US8952024B2, “Herbicidal pyrimidone derivatives” (E I du Pont de Nemours and Company, priority 2009, dated 2015)
